One data set deals with Jurkat. Kind of data set: Cytotoxicity against human Jurkat T cells at <100 uM after 72 hrs. It is filed as cell-based.
For a further data set, the system named is HL-60. Kind of data set: Cytotoxicity against human HL60 cells at <100 uM after 72 hrs. Type of data set: cell-based. Conditions: hl-60, 72 h; call rule not given here.
Data set [1] can be described thus: Cytotoxicity against human MDA-MB-231 cells after 72 hrs. Type of data set: cell-based.
The nature of data set [2]: Cytotoxicity against human A549 cells after 72 hrs. It is filed as cell-based.
Another data set has as its system HT-29. Kind of data set: Cytotoxicity against human HT29 cells after 72 hrs. Type of data set: cell-based. As to conditions: ht-29, 72 h.
Data set [3] in a line: Cytotoxicity against human Jurkat T cells after 72 hrs. It is filed as cell-based.
The nature of data set [4]: Cytotoxicity against human HL60 cells after 72 hrs. Type of data set: cell-based, HL-60.
In the next data set the test system is HeLa. Kind of data set: Antimitotic activity against human HeLa cells after 18 hrs. It is filed as functional, cell-based.

From ChEMBL document CHEMBL1139856, “Smallest peptoids with antiproliferative activity on human neoplastic cells” (J Med Chem, 2007) come the findings set out here.

Molecules are shown by their SMILES.

Take `COc1ccc(CCN2CC(=O)N(CCC(c3ccccc3)c3ccccc3)CC2=O)cc1`: the Activity result in the data set with Jurkat and in the data set with HL-60 was “Not Active” in each case.

On to `COc1ccc(CCN(CC(=O)N(CCC(c2ccccc2)c2ccccc2)CC(N)=O)C(=O)CNCCC(c2ccccc2)c2ccccc2)cc1`, for which the GI50 at 72 h was determined as 1320 nM in data set [1], 1410 nM in data set [2], 6.68 µM in data set [3] and 21.8 µM in data set [4]. In the data set with HT-29, the GI came out at 1.41 µM.

Turning to `NC(=O)CN(CCC(c1ccccc1)c1ccccc1)C(=O)CNCCC(c1ccccc1)c1ccccc1`, half-maximal inhibition with HeLa (IC50) was put at 154 nM. In addition, the GI50 at 72 h in data set [1] was determined as 3080 nM; in data set [2], 3080 nM; in data set [3], 10.5 µM; in data set [4] it was 13.2 µM. Moreover, in the data set with HT-29, the GI turned out to be 1.64 µM.

For `NC(=O)CN(CCC(c1ccccc1)c1ccccc1)C(=O)CNCC1CCCO1` (stereo unspecified), the Activity result in the data set on Jurkat and with HL-60 was “Not Active” in each case.

Regarding `NC(=O)CN(CCC(c1ccccc1)c1ccccc1)C(=O)CN(CCC(c1ccccc1)c1ccccc1)C(=O)CNCC1CCCO1` (stereo unspecified) [TRIMER I], the GI50 at 72 h in data set [1] came out at 2720 nM; in data set [2], 2570 nM; in data set [3], 21.3 µM; in data set [4], 3.55 µM. In addition, in the data set on HT-29, the GI was 2.27 µM.

Turning to `COc1ccc(CCN(CC(N)=O)C(=O)CNCCC(c2ccccc2)c2ccccc2)cc1`, the GI50 at 72 h was determined as 19100 nM in data set [1], 33.9 µM in data set [3] and 31.1 µM in data set [4]. In the data set on HT-29, this compound yielded a GI of 9.14 µM.

For the compound `O=C1CN(CC2CCCO2)C(=O)CN1CCC(c1ccccc1)c1ccccc1` (stereo unspecified), the Activity result in the data set on Jurkat and in the data set on HL-60 was “Not Active” each time.

In the case of `COc1ccc(CCNCC(=O)N(CCC(c2ccccc2)c2ccccc2)CC(N)=O)cc1`, the GI50 at 72 h turned out to be 9360 nM in data set [1], 9360 nM in data set [2], 27.3 µM in data set [3] and 29.1 µM in data set [4]. Further, the GI in the data set on HT-29 was 9.14 µM.

For the compound `O=C(CNCCC(c1ccccc1)c1ccccc1)NCCC(c1ccccc1)c1ccccc1`, in the data set on HeLa, the IC50 stood at 35 nM. In addition, the GI50 at 72 h in data set [1] turned out to be 3460 nM; in data set [2], 3460 nM; in data set [3], 10.2 µM; in data set [4], 12.6 µM. For the same compound, in the data set with HT-29, the GI was 3.03 µM.

For `COc1ccc(CCN(CC(=O)NCCC(c2ccccc2)c2ccccc2)C(=O)CNCCC(c2ccccc2)c2ccccc2)cc1`, the IC50 with HeLa is 25 nM. Besides, the concentration for 50% growth inhibition (GI50) at 72 h stood at 1020 nM in data set [1], 1020 nM in data set [2], 3.75 µM in data set [3] and 2.94 µM in data set [4]. This compound returned a GI in the data set on HT-29 of 1.04 µM.

Take `NC(=O)CN(CC1CCCO1)C(=O)CNCCC(c1ccccc1)c1ccccc1` (stereo unspecified): the Activity entry in the data set on Jurkat and in the data set with HL-60 was “Not Active” each time.

Regarding `COc1ccc(CCNCC(=O)NCCC(c2ccccc2)c2ccccc2)cc1`, inhibition in the data set with HeLa was half-maximal at 994 nM (IC50). Besides, the GI50 at 72 h worked out at 2730 nM in data set [1], 3730 nM in data set [2], 18 µM in data set [3] and 10.6 µM in data set [4]. This compound had a GI with HT-29 of 1.89 µM.

Consider `O=C(CN(CCC(c1ccccc1)c1ccccc1)C(=O)CNCC1CCCO1)NCCC(c1ccccc1)c1ccccc1` (stereo unspecified), for which the GI50 at 72 h in data set [1] was found to be 1060 nM; in data set [2], 1060 nM; in data set [3], 5.83 µM; in data set [4], 23 µM. Besides, the GI in the data set on HT-29 is 0.94 µM.

Usually GI50 stands for the concentration at which growth is held to half of that of the control. Read a low GI50 as more potent growth inhibition. The IC50 is the concentration that gives 50% inhibition. A high value points to weaker potency in that assay.
